Reference: patent publication EP1441698B1, “FLASHMELT ORAL DOSAGE FORMULATION” (Otsuka Pharmaceutical Co., Ltd., priority 2001, dated 2003)

Experiment: Hygroscopicity: water content of crystals after storage in a desiccator (e.g. Karl Fischer method)
Assay type: physicochemical
Conditions: after 24 hours inside a dessicator at 60°C and a humidity of 100%
Protocol: Aripiprazole Anhydride Crystals B of the present invention have low hygroscopicity. For example, Aripiprazole Anhydride Crystals B of the present invention maintain a water content of 0.4% or less after 24 hours inside a dessicator set at a temperature of 60°C and a humidity of 100%.
Well-known methods of measuring water content can be used as long as they are methods commonly used for measuring the water content of crystals. For example, a method such as the Karl Fischer method can be used.

water content: ≤ 0.4%
Compound: O=C1CCc2ccc(OCCCCN3CCN(c4cccc(Cl)c4Cl)CC3)cc2N1 [Aripiprazole Anhydride Crystals B, aripiprazole]
